# From patent publication US9051342B2 (priority 2004, dated 2015)
row,Structure (SMILES),melting point [°C]
1,"N#Cc1cccc(-c2ccn(-c3ccc(OC(F)(F)F)cc3)n2)c1 [Compound 61, 3-[1-(4-Trifluoromethoxy-phenyl)-1H-pyrazol-3-yl]-benzonitrile]",83 to 84
2,"COC(=O)c1cccc(-n2ccc(-c3cccc(C#N)c3)n2)c1 [Compound 64, 3-[3-(3-Cyano-phenyl)-pyrazol-1-yl]-benzoic acid methyl ester]",143 to 145
3,"O=C(O)c1cccc(-c2ncn(-c3ccc([N+](=O)[O-])cc3)n2)c1 [Compound 23, 3-[1-(4-Nitro-phenyl)-1H-[1,2,4]triazol-3-yl]-benzoic acid]",284 to 286
4,"O=C(O)c1ccc(-n2cc(-c3cccc(F)c3)cn2)cc1 [Compound 212, 4-[4-(3-Fluoro-phenyl)-pyrazol-1-yl]-benzoic acid]",261 to 265
5,"Cc1ccc(-n2cnc(-c3cccc(C(=O)O)c3)n2)cc1 [Compound 14, 3-(1-p-Tolyl-1H-[1,2,4]triazol-3-yl)-benzoic acid]",263 to 265
6,"O=C(O)c1ccc(-n2cc(-c3ccc4c(c3)OCO4)cn2)cc1 [Compound 205, 4-(4-Benzo[1,3]dioxol-5-yl-pyrazol-1-yl)-benzoic acid]",286 to 288
7,"O=C(O)c1ccc(-c2ccn(-c3cccnc3)n2)cc1 [Compound 261, 4-(1-Pyridin-3-yl-1H-pyrazol-3-yl)-benzoic acid]",280 to 282
8,"O=C(O)c1ccc(-n2cc3c(n2)-c2ccccc2CC3)cc1 [Compound 161, 4-(4,5-Dihydro-benzo[g]indazol-2-yl)-benzoic acid]",288 to 290
9,"O=C(O)c1ccc(-n2cnc(-c3ccccc3)c2)cc1 [Compound 263, 4-(4-Phenyl-imidazol-1-yl)-benzoic acid]",263 to 265
10,"O=C(O)c1cccc(-n2cc(-c3ccc4c(c3)OCO4)cn2)c1 [Compound 111, 3-(4-Benzo[1,3]dioxol-5-yl-pyrazol-1-yl)-benzoic acid]",264 to 265
11,"O=C(O)c1ccc(-c2cnn(-c3ccc(F)cc3F)c2)cc1 [Compound 180, 4-[1-(2,4-Difluoro-phenyl)-1H-pyrazol-4-yl]-benzoic acid]",258 to 260
12,"O=C(O)c1ccc(-n2cc(-c3ccccn3)cn2)cc1 [Compound 114, 4-(4-Pyridin-2-yl-pyrazol-1-yl)-benzoic acid]",260 to 262
13,"O=C(O)c1cccc(-c2ccn(-c3cccs3)n2)c1 [Compound 258, 3-(1-Thiophen-2-yl-1H-pyrazol-3-yl)-benzoic acid]",198 to 199
14,O=C(O)c1ccc(-n2cc3c(n2)-c2ccccc2OC3)cc1 [Compound 162],308 to 310
15,"COc1ccc2c(c1)-c1nn(-c3cccc(C(=O)O)c3)cc1C2 [Compound 140, 3-(7-Methoxy-4H-indeno[1,2-c]pyrazol-2-yl)-benzoic acid]",225 to 227
16,"COc1ccc(-n2ccc(-c3cccc(C#N)c3)n2)cc1 [Compound 58, 3-[1-(4-Methoxy-phenyl)-1H-pyrazol-3-yl]-benzonitrile]",110 to 112
17,"O=C(O)c1ccc(-n2cc(-c3ccncn3)cn2)cc1 [Compound 118, 4-(4-Pyrimidin-4-yl-pyrazol-1-yl)-benzoic acid]",> 350
18,"O=C(O)c1cccc(-n2cc(-c3ccc(OC(F)F)cc3)cn2)c1 [Compound 107, 3-[4-(4-Difluoromethoxy-phenyl)-pyrazol-1-yl]-benzoic acid]",118 to 120

row,Structure (SMILES),melting point [°C]
1,"O=C(O)c1cccc(-c2ccn(-c3ccc4c(c3)OCO4)c2)c1 [Compound 247, 3-(1-Benzo[1,3]dioxol-5-yl-1H-pyrrol-3-yl)-benzoic acid]",177 to 180
2,"CCc1ccc(-n2ccc(-c3cccc(C(=O)O)c3)c2)cc1 [Compound 125, 3-[1-(4-Ethyl-phenyl)-1H-pyrrol-3-yl]-benzoic acid]",190 to 192
3,"O=C(O)c1cccc(-c2ncn(-c3ccc(Br)cc3)n2)c1 [Compound 22, 3-[1-(4-Bromo-phenyl)-1H-[1,2,4]triazol-3-yl]-benzoic acid]",> 310
4,"COc1cccc2c1CCc1cn(-c3cccc(C(=O)O)c3)nc1-2 [Compound 147, 3-(6-Methoxy-4,5-dihydro-benzo[g]indazol-2-yl)-benzoic acid]",232 to 233
5,"CC(C)c1ccc(-n2cc(-c3ccc(C(=O)O)cc3)cn2)cc1 [Compound 229, 4-[1-(4-Isopropyl-phenyl)-1H-pyrazol-4-yl]-benzoic acid]",215 to 218
6,"O=C(O)c1cccc(-c2ncn(-c3cccc(Br)c3)n2)c1 [Compound 35, 3-[1-(3-Bromo-phenyl)-1H-[1,2,4]triazol-3-yl]-benzoic acid]",253 to 255
7,"Cc1ccccc1-n1ccc(-c2cccc(C(=O)O)c2)c1 [Compound 240, 3-(1-o-Tolyl-1H-pyrrol-3-yl)-benzoic acid]",161 to 163
8,"Cc1nc(-c2cccc(C(=O)O)c2)nn1-c1cccc(F)c1 [Compound 34, 3-[1-(3-Fluoro-phenyl)-5-methyl-1H-[1,2,4]triazol-3-yl]-benzoic acid]",236 to 238
9,"O=C(O)c1ccc(-n2cc(-c3cnccn3)cn2)cc1 [Compound 120, 4-(4-Pyrazin-2-yl-pyrazol-1-yl)-benzoic acid]",319 to 321
10,"O=C(O)c1ccc(-n2cc3c(n2)-c2cccc(OC(F)F)c2CC3)cc1 [Compound 186, 4-(6-Difluoromethoxy-4,5-dihydro-benzo[g]indazol-2-yl)-benzoic acid]",282 to 283
11,"O=C(O)c1cccc(-n2cc(-c3ccc(O)cc3)cn2)c1 [Compound 100, 3-[4-(4-Hydroxy-phenyl)-pyrazol-1-yl]-benzoic acid]",282 to 284
12,"O=C(O)c1cccc(-c2ccn(-c3ccc(OC(F)F)cc3)n2)c1 [Compound 124, 3-[1-(4-Difluoromethoxy-phenyl)-1H-pyrazol-3-yl]-benzoic acid]",182 to 183
13,"COc1ccc(-c2ccc(-n3cnc(-c4cccc(C(=O)O)c4)n3)cc2)cc1 [Compound 27, 3-[1-(4′-Methoxy-biphenyl-4-yl)-1H-[1,2,4]triazol-3-yl]-benzoic acid]",243 to 246
14,"O=C(O)c1cccc(-c2cnn(-c3cccc(OC(F)(F)F)c3)c2)c1 [Compound 223, 3-[1-(3-Trifluoromethoxy-phenyl)-1H-pyrazol-4-yl]-benzoic acid]",143 to 145
15,"O=C(O)c1cccc(-c2ccn(-c3ccc(Cl)cc3)c2)c1 [Compound 155, 3-[1-(4-Chloro-phenyl)-1H-pyrrol-3-yl]-benzoic acid]",211 to 213
16,"Cc1ccccc1-n1ccc(-c2ccc(C(=O)O)cc2)c1 [Compound 195, 4-(1-o-Tolyl-1H-pyrrol-3-yl)-benzoic acid]",208 to 209
17,"O=C(O)c1cccc(-n2cc(-c3cccc(Oc4ccccc4)c3)cn2)c1 [Compound 216, 3-[4-(3-Phenoxy-phenyl)-pyrazol-1-yl]-benzoic acid]",164 to 165
18,"Cc1ccc(-n2cc(-c3ccc(C(=O)O)cc3)cn2)cc1Cl [Compound 231, 4-[1-(3-Chloro-4-methyl-phenyl)-1H-pyrazol-4-yl]-benzoic acid]",285 to 288
